# Source: ChEMBL document CHEMBL5247604, “Discovery of novel hybrids containing clioquinol-1-benzyl-1,2,3,6-tetrahydropyridine as multi-target-directed ligands (MTDLs) against Alzheimer's disease” (Eur J Med Chem, 2022)
# The source made the active and inactive calls. The calls are words filed in the database; no cut-off is given here.
# What was measured:
# [1] = in vivo; conditions: ICR, mouse, po
# Description: Acute toxicity in ICR mouse assessed as lethality at 21.30 to 52 mg/kg, po and measured upto 14 days
# [2] = system: Mus musculus; assay: Antialzheimer activity in human oligo-merized amyloid beta (1 to 42 residues)-induced cognitive impairment C57BL/6 mouse model assessed as decrease in escape latency at 5 mg/kg,ip qd for 10 days by Morris water maze test relative to control; format: functional, organism-based; conditions: time 10.0 day
# [3] = system: Mus musculus; assay: Antialzheimer activity in human oligo-merized amyloid beta (1 to 42 residues)-induced cognitive impairment C57BL/6 mouse model assessed as decrease IL-1beta level in cortex at 5 mg/kg,ip qd for 10 days by ELISA; format: functional, organism-based; conditions: time 10.0 day
# [4] = system: SH-SY5Y; assay: Antialzheimer activity in human SH-SY5Y cells assessed as inhibition of GA-induced tau hyperphosphorylation at Ser396 residue incubated for 24 hrs by ELISA; format: functional, cell-based
# [5] = system: Mus musculus; assay: Antialzheimer activity in human oligo-merized amyloid beta (1 to 42 residues)-induced cognitive impairment C57BL/6 mouse model assessed as increase duration in novel arm at 5 mg/kg,ip qd for 10 days by Y-maze test relative to control; format: functional, organism-based; conditions: time 10.0 day
# [6] = system: Mus musculus; assay: Antialzheimer activity in human oligo-merized amyloid beta (1 to 42 residues)-induced cognitive impairment C57BL/6 mouse model assessed as increase in percentage of time spent in the target quadrant at 5 mg/kg,ip qd for 10 days by Morris water maze test relative to control; format: functional, organism-based; conditions: time 10.0 day
# [7] = system: SH-SY5Y; assay: Antialzheimer activity in human SH-SY5Y cells assessed as inhibition of GA-induced tau hyperphosphorylation at Ser199 residue at 0.1 to 3 uM incubated for 24 hrs by ELISA; format: functional, cell-based; conditions: dose 0.1-3 µM
# [8] = system: Mus musculus; assay: Antialzheimer activity in human oligo-merized amyloid beta (1 to 42 residues)-induced cognitive impairment C57BL/6 mouse model assessed as decrease TNF-alpha level in cortex at 5 mg/kg,ip qd for 10 days by ELISA; format: functional, organism-based; conditions: time 10.0 day
# [9] = system: SH-SY5Y; assay: Antioxidant activity against okadaic acid-induced ROS generation in human SH-SY5Y cells assessed as reduction in DCF fluorescence intensity pretreated for 24 hrs followed by okadaic acid addition for 24 hrs by DCFH-DA dye based fluorescence analysis; format: functional, cell-based
# [10] = system: SH-SY5Y; assay: Antialzheimer activity in human SH-SY5Y cells assessed as inhibition of GA-induced tau hyperphosphorylation at Ser396 residue at 0.1 to 3 uM incubated for 24 hrs by ELISA; format: functional, cell-based; conditions: dose 0.1-3 µM
# [11] = system: SH-SY5Y; assay: (§1) Neuroprotective activity in human SH-SY5Y cells assessed as inhibition of okadaic acid-induced mitochondrial membrane potential by measuring increase in red-to-green fluorescence intensity ratio pretreated for 24 hrs followed by okadaic acid addition for 24 hrs by JC-1 dye based fluorescence analysis; format: functional, cell-based
# [12] = system: SH-SY5Y; assay: Antialzheimer activity in human SH-SY5Y cells assessed as inhibition of GA-induced tau hyperphosphorylation at Ser199 residue incubated for 24 hrs by ELISA; format: functional, cell-based
# [13] = system: SH-SY5Y; assay: Antioxidant activity against okadaic acid-induced ROS generation in human SH-SY5Y cells assessed as reduction in DCF fluorescence intensity at 1 to 10 uM pretreated for 24 hrs followed by okadaic acid addition for 24 hrs by DCFH-DA dye based fluorescence analysis; format: functional, cell-based; conditions: dose 1-10 µM
# [14] = system: Mus musculus; assay: Antialzheimer activity in human oligo-merized amyloid beta (1 to 42 residues)-induced cognitive impairment C57BL/6 mouse model assessed as increase in ratio of brain to body weight at 15 mg/kg,ip qd for 10 days by Morris water maze test; format: functional, organism-based; conditions: time 10.0 day
# [15] = Metal chelating activity assessed as Fe3+-compound complex formation by measuring red shift in presence of FeCl3 at 40 uM incubated for 30 mins by UV-Visible spectrophotometry
# [16] = Metal chelating activity assessed as Zn2+-compound complex formation by measuring red shift in presence of ZnCl2 at 40 uM incubated for 30 mins by UV-Visible spectrophotometry
# [17] = system: Mus musculus; assay: Antialzheimer activity in scopolamine-induced cognitive impairment ICR mouse model assessed as distance to reach target at 15 mg/kg,ip qd for 10 days followed by scopolmaine-stimulation measured on day 16 by Morris water maze test (Rvb= 16.93 +/- 5.88 meter); format: functional; conditions: time 10 day
# [18] = system: Mus musculus; assay: Antialzheimer activity in human oligo-merized amyloid beta (1 to 42 residues)-induced cognitive impairment C57BL/6 mouse model assessed as decrease TNF-alpha level in cortex at 15 mg/kg,ip qd for 10 days by ELISA; format: functional, organism-based; conditions: time 10.0 day
# [19] = target: T1, Amyloid-beta precursor protein (Homo sapiens, UniProt P05067); assay: Inhibition of AChE induced HFIP-pretreated amyloid beta (1 to 42 ) (unknown origin) aggregation incubated for 24 hr by Thioflavin T based fluorometric assay
# [20] = Acute toxicity in ICR mouse assessed as abnormal behavior at 1200 mg/kg, po and measured after 24 hrs; format: organism-based; conditions: in vivo
# [21] = target: Acetylcholinesterase (Electrophorus electricus, UniProt O42275); assay: Inhibition of electric eel AChE using acetylthiocholine iodide as substrate preincubated for 15 mins followed by substrate addition by Ellman's method
# [22] = Acute toxicity in ICR mouse assessed as change in body weight at 1200 mg/kg, po and measured after 24 hrs; format: organism-based; conditions: in vivo
# [23] = system: Mus musculus; assay: Antialzheimer activity in human oligo-merized amyloid beta (1 to 42 residues)-induced cognitive impairment C57BL/6 mouse model assessed as decrease in escape latency at 15 mg/kg,ip qd for 10 days by Morris water maze test relative to control; format: functional, organism-based; conditions: time 10.0 day
# [24] = system: Mus musculus; assay: Antialzheimer activity in human oligo-merized amyloid beta (1 to 42 residues)-induced cognitive impairment C57BL/6 mouse model assessed as increase in percentage of time spent in the target quadrant at 15 mg/kg,ip qd for 10 days by Morris water maze test relative to control; format: functional, organism-based; conditions: time 10.0 day
# [25] = system: SH-SY5Y; assay: Cytotoxicity against human SH-SY5Y cells assessed as reduction in cell viability upto 50 uM incubated for 24 hrs by MTT assay; format: toxicity, cell-based
# [26] = Acute toxicity in ICR mouse assessed as change in body weight at 1200 mg/kg, po and measured after 4 hrs; format: organism-based; conditions: in vivo
# [27] = system: SH-SY5Y; assay: as §1, with “ratio at 1 to 10 uM” for “ratio”; format: functional, cell-based; conditions: dose 1-10 µM
# [28] = Metal chelating activity assessed as Al3+-compound complex formation by measuring red shift in presence of AlCl3 at 40 uM incubated for 30 mins by UV-Visible spectrophotometry
# [29] = Acute toxicity in ICR mouse assessed as altered water consumption at 1200 mg/kg, po and measured after 14 days; format: organism-based; conditions: in vivo, 336 h, time 14 day
# [30] = target: T1, Amyloid-beta precursor protein; assay: Inhibition of Cu2+ induced amyloid beta (1 to 42 ) (unknown origin) aggregation incubated for 24 hr by Thioflavin T based fluorometric assay
# [31] = Acute toxicity in ICR mouse assessed as altered food consumption at 1200 mg/kg, po and measured after 14 days; format: organism-based; conditions: in vivo, 336 h, time 14 day
# [32] = system: Mus musculus; assay: Antialzheimer activity in human oligo-merized amyloid beta (1 to 42 residues)-induced cognitive impairment C57BL/6 mouse model assessed as decrease IL-1beta level in cortex at 15 mg/kg,ip qd for 10 days by ELISA; format: functional, organism-based; conditions: time 10.0 day
# [33] = Acute toxicity in ICR mouse assessed as mortality at 1200 mg/kg, po and measured after 24 hrs; format: organism-based; conditions: in vivo
# [34] = system: Mus musculus; assay: Antialzheimer activity in scopolamine-induced cognitive impairment ICR mouse model assessed as time latency to reach target at 15 mg/kg,ip qd for 10 days followed by scopolmaine-stimulation measured on day 16 by Morris water maze test (Rvb= 71.89 +/- 25.59 sec); format: functional; conditions: time 10 day
# [35] = target: T1, Amyloid-beta precursor protein; assay: Inhibition of amyloid beta (1 to 42 ) (unknown origin) self aggregation incubated for 24 hr by Thioflavin T based fluorometric assay
# [36] = Acute toxicity in ICR mouse assessed as altered water consumption at 1200 mg/kg, po and measured after 24 hrs; format: organism-based; conditions: in vivo
# [37] = target: Acetylcholinesterase (Homo sapiens, UniProt P22303); assay: Inhibition of AChE in human SH-SY5Ycells assessed as reduction AChE activity using acetylthiocholine as substrate incubated for 24 hrs by DTNB based Ellman's method; format: cell-based, SH-SY5Y
# [38] = target: T1, Amyloid-beta precursor protein; assay: Inhibition of Cu2+ induced amyloid beta (1 to 42 ) (unknown origin) aggregation assessed as reduction in fibrils incubated for 24 hr by TEM analysis
# [39] = Acute toxicity in ICR mouse assessed as mortality at 1200 mg/kg, po and measured after 14 days; format: organism-based; conditions: in vivo, 336 h, time 14 day
# [40] = system: Mus musculus; assay: Antialzheimer activity in human oligo-merized amyloid beta (1 to 42 residues)-induced cognitive impairment C57BL/6 mouse model assessed as increase duration in novel arm at 15 mg/kg,ip qd for 10 days by Y-maze test relative to control; format: functional, organism-based; conditions: time 10.0 day
# [41] = target: T1, Amyloid-beta precursor protein; assay: Inhibition of AChE induced HFIP-pretreated amyloid beta (1 to 42 ) (unknown origin) aggregation at 0.1 to 10 uM incubated for 24 hr by Thioflavin T based fluorometric assay; conditions: dose 0.1-10 µM
# [42] = Acute toxicity in ICR mouse assessed as altered water consumption at 1200 mg/kg, po and measured after 4 hrs; format: organism-based; conditions: in vivo
# [43] = Metal chelating activity assessed as Cu2+-compound complex formation by measuring red shift in presence of CuSO4 at 40 uM incubated for 30 mins by UV-Visible spectrophotometry
# [44] = Acute toxicity in ICR mouse assessed as abnormal behavior at 1200 mg/kg, po and measured after 4 hrs; format: organism-based; conditions: in vivo
# [45] = Acute toxicity in ICR mouse assessed as change in body weight at 1200 mg/kg, po and measured after 14 days; format: organism-based; conditions: in vivo, 336 h, time 14 day
# [46] = Acute toxicity in ICR mouse assessed as altered food consumption at 1200 mg/kg, po and measured after 24 hrs; format: organism-based; conditions: in vivo
# [47] = Acute toxicity in ICR mouse assessed as mortality at 1200 mg/kg, po and measured after 4 hrs; format: organism-based; conditions: in vivo
# [48] = Metal chelating activity assessed as Fe2+-compound complex formation by measuring red shift in presence of FeSO4 at 40 uM incubated for 30 mins by UV-Visible spectrophotometry
# [49] = Acute toxicity in ICR mouse assessed as abnormal behavior at 1200 mg/kg, po and measured after 14 days; format: organism-based; conditions: in vivo, 336 h, time 14 day
# [50] = Acute toxicity in ICR mouse assessed as altered food consumption at 1200 mg/kg, po and measured after 4 hrs; format: organism-based; conditions: in vivo
# T1 sequence (P05067 whole entry): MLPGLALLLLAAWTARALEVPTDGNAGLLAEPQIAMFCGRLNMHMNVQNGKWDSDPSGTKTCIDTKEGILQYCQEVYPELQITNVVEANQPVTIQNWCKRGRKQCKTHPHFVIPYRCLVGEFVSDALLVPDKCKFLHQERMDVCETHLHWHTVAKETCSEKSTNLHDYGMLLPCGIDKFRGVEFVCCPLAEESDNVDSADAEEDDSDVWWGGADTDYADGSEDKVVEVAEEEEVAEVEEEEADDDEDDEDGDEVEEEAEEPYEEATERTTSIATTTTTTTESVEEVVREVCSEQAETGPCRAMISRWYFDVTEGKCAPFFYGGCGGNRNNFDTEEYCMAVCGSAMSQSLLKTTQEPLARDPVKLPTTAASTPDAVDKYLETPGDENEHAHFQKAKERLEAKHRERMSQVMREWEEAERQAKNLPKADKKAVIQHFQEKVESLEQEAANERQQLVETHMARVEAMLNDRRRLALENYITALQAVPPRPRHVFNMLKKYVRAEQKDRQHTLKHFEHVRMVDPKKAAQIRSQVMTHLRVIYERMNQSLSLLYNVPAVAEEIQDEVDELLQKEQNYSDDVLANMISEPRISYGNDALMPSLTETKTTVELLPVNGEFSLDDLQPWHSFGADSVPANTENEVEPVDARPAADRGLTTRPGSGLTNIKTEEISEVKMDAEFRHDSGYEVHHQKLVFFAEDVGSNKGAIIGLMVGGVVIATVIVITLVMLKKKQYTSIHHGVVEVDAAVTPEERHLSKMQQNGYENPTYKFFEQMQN
# Sequence of Acetylcholinesterase (Homo sapiens, UniProt P22303) (P22303 whole entry): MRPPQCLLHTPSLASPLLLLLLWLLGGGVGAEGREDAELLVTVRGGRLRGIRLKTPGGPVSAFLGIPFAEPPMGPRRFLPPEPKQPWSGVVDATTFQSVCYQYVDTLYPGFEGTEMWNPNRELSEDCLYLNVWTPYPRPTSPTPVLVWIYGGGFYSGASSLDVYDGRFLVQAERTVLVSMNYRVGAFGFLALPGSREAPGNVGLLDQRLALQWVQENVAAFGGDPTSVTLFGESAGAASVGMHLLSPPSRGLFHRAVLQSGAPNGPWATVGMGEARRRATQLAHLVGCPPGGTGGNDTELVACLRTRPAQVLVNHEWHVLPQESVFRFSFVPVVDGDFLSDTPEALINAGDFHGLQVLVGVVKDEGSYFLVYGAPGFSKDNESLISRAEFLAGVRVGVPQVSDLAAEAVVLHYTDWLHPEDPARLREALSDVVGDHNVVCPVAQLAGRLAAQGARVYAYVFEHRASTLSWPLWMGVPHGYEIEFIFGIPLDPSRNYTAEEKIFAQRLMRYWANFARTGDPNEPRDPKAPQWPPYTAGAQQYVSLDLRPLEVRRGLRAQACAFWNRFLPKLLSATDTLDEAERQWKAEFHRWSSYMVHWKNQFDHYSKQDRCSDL
# Sequence of Acetylcholinesterase (Electrophorus electricus, UniProt O42275) (O42275 whole entry): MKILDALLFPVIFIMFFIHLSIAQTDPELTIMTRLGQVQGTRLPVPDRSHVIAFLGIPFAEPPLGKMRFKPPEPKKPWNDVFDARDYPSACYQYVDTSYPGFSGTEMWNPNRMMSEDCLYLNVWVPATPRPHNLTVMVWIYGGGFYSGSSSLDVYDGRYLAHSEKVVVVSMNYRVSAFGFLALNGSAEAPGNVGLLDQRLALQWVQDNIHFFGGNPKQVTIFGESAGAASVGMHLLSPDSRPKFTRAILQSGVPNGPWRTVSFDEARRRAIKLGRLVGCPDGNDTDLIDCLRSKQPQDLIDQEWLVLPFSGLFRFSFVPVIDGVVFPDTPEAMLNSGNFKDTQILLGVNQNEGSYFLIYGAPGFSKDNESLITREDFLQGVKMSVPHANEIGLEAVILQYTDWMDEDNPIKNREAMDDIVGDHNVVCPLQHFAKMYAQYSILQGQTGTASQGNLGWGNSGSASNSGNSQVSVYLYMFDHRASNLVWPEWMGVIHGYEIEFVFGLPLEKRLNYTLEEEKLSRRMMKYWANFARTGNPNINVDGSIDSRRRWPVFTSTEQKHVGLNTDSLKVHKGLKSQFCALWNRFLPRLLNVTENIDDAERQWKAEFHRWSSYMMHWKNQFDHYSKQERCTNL
structure (smiles),measurement,setting,value
COc1cc2c(cc1OC)C(=O)C(CC1CCN(Cc3ccccc3)CC1)C2 (configuration not stated) [DONEPEZIL],LD50 at 336 h,[1],28.1 mg/kg
same,Activity,[2],Active
same,Activity,[3],Active
same,IC50,[4],155 µM
same,Activity,[5],Active
same,Activity,[6],Active
same,Activity,[7],Active
same,Activity,[8],Active
same,IC50,[9],202 µM
same,Activity,[10],Active
same,IC50,[11],326 µM
same,IC50,[12],35 µM
same,Activity,[13],Active
Cl.Oc1cccc2ccc(/C=C/C3=CCN(Cc4ccccc4C(F)(F)F)CC3)nc12,Activity,[14],Active
same,Activity,[15],Active
same,Activity,[16],Active
same,Activity,[17],8.05 m
same,Activity,[18],Active
same,IC50,[19],1660 µM
same,IC50,[4],138 µM
same,Activity,[20],Non-Toxic
same,IC50,[21],0.11 µM
same,Activity,[22],Non-Toxic
same,Activity,[23],Active
same,Activity,[7],Active
same,Activity,[24],Active
same,Activity,[25],Non-Toxic
same,Activity,[26],Non-Toxic
same,Activity,[27],Active
same,Activity,[28],Active
same,Activity,[29],Non-Toxic
same,IC50,[9],213 µM
same,inhibition,[30],Active
same,Activity,[31],Non-Toxic
same,Activity,[32],Active
same,Activity,[33],Non-Toxic
same,Time,[34],35.22 s
same,inhibition,[35],inactive
same,Activity,[36],Non-Toxic
same,IC50,[37],161 µM
same,inhibition,[38],Active
same,Activity,[10],Active
same,Activity,[39],Non-Toxic
same,Activity,[40],Active
same,inhibition,[41],Dose-Dependent Effect
same,Activity,[42],Non-Toxic
same,Activity,[43],Active
same,IC50,[11],434 µM
same,Activity,[44],Non-Toxic
same,Activity,[45],Non-Toxic
same,Activity,[46],Non-Toxic
same,Activity,[47],Non-Toxic
same,Activity,[48],Active
same,Activity,[49],Non-Toxic
same,Activity,[50],Non-Toxic
same,IC50,[12],82 µM
same,Activity,[13],Active
